pIC50: −log10 of the molar value. Counter-ions that a name gives are not always drawn. Like-named read-outs stand apart in the source and are kept apart here.
Assays:
PARP-1 enzyme [1] = biological target: PARP-1 enzyme (Homo sapiens (Human), UniProt P09874); assay: Poly(ADP-ribose)polymerase [PARP-1] enzyme inhibitory activity (Trevigen PARP Assay kit); format: biochemical; settings: read-out: PARP-1 Inhibitory activity IC50
Method in brief: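 On histone-coated plates, PARP-1 (0.12 unit/well) reacted with compound for 30 min at 25 °C in a 2× cocktail of 1.95 mM NAD+, 50 μM biotinylated NAD+ and activated DNA (Tris pH 8.0, 25 mM MgCl2). Biotin-ribosylated histone was detected with streptavidin-HRP and TACS-Sapphire substrate, stopped with HCl and read at 450 nm.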

PARP-1 enzyme [2] = biological target: PARP-1 enzyme (Cricetulus griseus (Chinese hamster) (Cricetulus barabensis griseus), UniProt Q9R152); assay: Intracellular PARP inhibitory activity (NAD(P)H released by MMS-treated CHO-K1 cells); format: cell-based
Chain of PARP-1 enzyme (Cricetulus griseus (Chinese hamster) (Cricetulus barabensis griseus), UniProt Q9R152) (Q9R152 whole entry): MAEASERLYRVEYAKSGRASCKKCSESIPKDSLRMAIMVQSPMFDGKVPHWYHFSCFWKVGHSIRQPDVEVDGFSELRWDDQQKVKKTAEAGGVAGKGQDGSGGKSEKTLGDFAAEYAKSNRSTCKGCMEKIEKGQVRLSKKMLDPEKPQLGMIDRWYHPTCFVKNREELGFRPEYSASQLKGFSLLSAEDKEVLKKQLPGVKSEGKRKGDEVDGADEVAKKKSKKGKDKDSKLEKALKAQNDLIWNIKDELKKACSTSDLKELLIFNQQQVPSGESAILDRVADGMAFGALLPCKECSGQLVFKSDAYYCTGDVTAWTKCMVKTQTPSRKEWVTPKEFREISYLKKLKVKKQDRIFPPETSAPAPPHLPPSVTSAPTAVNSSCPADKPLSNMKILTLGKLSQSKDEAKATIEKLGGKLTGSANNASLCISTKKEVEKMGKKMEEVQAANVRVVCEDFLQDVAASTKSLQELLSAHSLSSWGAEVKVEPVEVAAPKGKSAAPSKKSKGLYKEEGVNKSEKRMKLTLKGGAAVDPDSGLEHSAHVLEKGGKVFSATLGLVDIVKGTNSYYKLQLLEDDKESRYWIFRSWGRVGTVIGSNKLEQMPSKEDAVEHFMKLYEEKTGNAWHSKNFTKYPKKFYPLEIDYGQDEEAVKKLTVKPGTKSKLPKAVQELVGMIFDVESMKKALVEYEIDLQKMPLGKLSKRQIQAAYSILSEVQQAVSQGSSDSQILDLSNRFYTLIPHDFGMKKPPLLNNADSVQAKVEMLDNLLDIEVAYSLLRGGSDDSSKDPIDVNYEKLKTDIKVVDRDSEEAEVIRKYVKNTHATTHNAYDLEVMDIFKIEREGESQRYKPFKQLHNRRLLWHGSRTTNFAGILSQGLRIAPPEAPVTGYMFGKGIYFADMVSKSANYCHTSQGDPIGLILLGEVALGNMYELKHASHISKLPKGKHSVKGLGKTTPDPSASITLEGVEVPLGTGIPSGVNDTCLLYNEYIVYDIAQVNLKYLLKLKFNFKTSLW
Protocol: In order to verify the ability of the compounds of the present invention to inhibit the PARP-1 enzyme activity, the amount of NAD(P)H accumulated on cell culture medium was measured.
The Chinese hamster ovary cells (CHO-K1) were cultured in RPMI1640 culture medium containing 10% fetal bovine serum (FBS). The cultured CHO-K1 cells were seeded into 96 well plate by 2.9×10^3 cells/well, and cultured for 16 hours under culture condition of 37° C., 5% CO2. After the culture, the cells were treated with the compounds of the Examples at varying concentrations, and cultured at 37° C. for 2 hours. […] The amount of […] released to the culture medium 3, 4, 5 hours after the treatment with MMS was quantified at 450 nm using Wallac EnVision™ (PerkinElmer Oy, Turku, Finland). The transference numbers of the compounds at varying concentrations according to the present invention are the average values obtained from four wells, and the results were calculated using regression analysis.
The Chinese hamster ovary cells (CHO-K1) were treated with the compounds at varying concentration according to the present invention, and the amount of NAD(P)H released into the culture medium 4 hours after the MMS treatment was quantified.

A549 cell line = assay: Cell growth inhibition of cancer cell lines (SRB assay), A549; format: cell-based; settings: for SN-38 PF50 / Temozolomide PF50: 2 μM compound; for SN-38 PF50: GI50 SN-38 alone / GI50 with compound; for Temozolomide PF50: GI50 temozolomide alone / GI50 with compound; for GI50: Homo sapiens, 72 hours
Protocol: (§1) The tests on cell growth inhibitory activity were performed with respect to A549 (US, ATCC), SK-OV-3 (Korea Research Institute of Chemical Technology; KRICT), HT-29 (US, ATCC), MCF-7 cell (US, ATCC), using Sulforhodamin-B <SRB> Assay (1989, US National Cancer Institute (NCI)) which was developed to measure the in vitro anti-cancer activity of the drug. […] The samples of the compounds of the Examples according to the present invention were used for the tests, and before the tests, the samples were dissolved in dimethylsulfoxide and diluted with the culture medium (RPMI 1640) to be used. The final concentration of the sample was varied in the range of 0.3˜100 μM. After the culture medium was removed from the 96 well plates, the diluted sample solution was added by 100 μl, and cultured in 37° C., 5% CO2 culture medium for 72 hours. The time zero (Tz) plates were collected at the time point of adding the sample. Upon completing the culture, the medium was removed from each well along with Tz plate, then cold 10% trichloroacetic acid (TCA) was added by 100 μl per well. The wells were left at 4° C. for 1 hour, so that the cells were fixed into the bottom of the plates. After the cells were fixed, the plates were rinsed with water five to six times to remove the remaining trichloroacetic acid solution, and moisture was completely dried at room temperature. The cells were dyed for 30 minutes by adding the dye solution in which 0.4% sulforhodamine-B was dissolved in 1% acetic acid solution, by 100 μl per dried wells. The above was rinsed again with 1% acetic acid solution five to six times to ensure that sulforhodamine-B which had not attached to the cells was removed. The plates were again dried at room temperature. 100 μl of 10 mM tris-buffer was then added to dissolve the dye, and the optical density (OD) at 520 nm was measured with the microplate reader. GI50 of the sample regarding cancer cell was calculated as explained below. Time zero (Tz), control value (C) and test value (T) were obtained, in which Tz corresponds to OD value of time at which the sample is applied and culture is started, C corresponds to OD value of the well which is cultured without treatment with the sample, and T corresponds to OD value of the well which is treated with the sample and then cultured. The degree of cell growth inhibition of the sample was measured using: If […] [Mathematical Formula 1]
(§2) Further, the ability of Examples 2, 42, 49, 52, 72, 74, 101 to increase growth inhibition effect of temozolomide and SN-38 at 2 μM was determined.

SK-OV-3 Cell line = assay: Cell growth inhibition of cancer cell lines (SRB assay), SK-OV-3; format: cell-based; settings: for SN-38 PF50 / Temozolomide PF50: 2 μM compound; for GI50: Homo sapiens, 72 hours
Protocol: as §1, §2

HT-29 Cell line = assay: Cell growth inhibition of cancer cell lines (SRB assay), HT-29; format: cell-based; settings: for SN-38 PF50 / Temozolomide PF50: 2 μM compound; for GI50: Homo sapiens, 72 hours
Protocol: as §1, §2

MCF-7 Cell line = assay: Cell growth inhibition of cancer cell lines (SRB assay), MCF-7; format: cell-based; settings: for SN-38 PF50 / Temozolomide PF50: 2 μM compound; for GI50: Homo sapiens, MCF7, 72 hours
Protocol: as §1, §2

[3] = PARP-1 enzyme, histone ribosylation, 450 nm

Chain of PARP-1 enzyme (Homo sapiens (Human), UniProt P09874) (P09874 whole entry): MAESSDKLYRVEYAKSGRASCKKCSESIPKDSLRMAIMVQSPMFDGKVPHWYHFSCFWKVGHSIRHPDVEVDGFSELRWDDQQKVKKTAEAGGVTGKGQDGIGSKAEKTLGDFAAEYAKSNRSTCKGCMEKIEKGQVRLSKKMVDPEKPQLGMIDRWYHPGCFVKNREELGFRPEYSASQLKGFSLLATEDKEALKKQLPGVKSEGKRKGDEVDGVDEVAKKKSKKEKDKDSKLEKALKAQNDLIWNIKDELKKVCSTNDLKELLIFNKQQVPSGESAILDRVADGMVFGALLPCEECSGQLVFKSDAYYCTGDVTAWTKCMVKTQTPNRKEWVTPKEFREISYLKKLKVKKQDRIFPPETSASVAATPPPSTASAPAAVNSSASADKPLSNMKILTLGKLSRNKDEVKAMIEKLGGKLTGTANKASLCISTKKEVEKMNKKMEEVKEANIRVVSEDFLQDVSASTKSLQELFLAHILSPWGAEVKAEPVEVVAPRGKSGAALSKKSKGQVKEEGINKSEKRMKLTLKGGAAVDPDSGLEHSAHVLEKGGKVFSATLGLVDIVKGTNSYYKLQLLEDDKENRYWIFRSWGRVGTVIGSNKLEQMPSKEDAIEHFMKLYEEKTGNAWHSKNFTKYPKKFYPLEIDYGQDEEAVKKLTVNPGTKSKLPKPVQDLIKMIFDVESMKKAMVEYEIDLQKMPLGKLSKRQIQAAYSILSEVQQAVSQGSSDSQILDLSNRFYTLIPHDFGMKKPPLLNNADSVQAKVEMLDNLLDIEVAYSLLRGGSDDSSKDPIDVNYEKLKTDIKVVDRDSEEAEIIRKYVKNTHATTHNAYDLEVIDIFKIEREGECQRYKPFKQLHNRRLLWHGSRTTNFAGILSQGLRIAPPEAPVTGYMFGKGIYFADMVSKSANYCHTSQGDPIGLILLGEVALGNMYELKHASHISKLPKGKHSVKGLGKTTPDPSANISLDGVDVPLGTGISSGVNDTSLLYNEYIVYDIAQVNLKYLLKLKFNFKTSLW

SMILES	pIC50 (PARP-1 enzyme [1]; [3])	pIC50 (PARP-1 enzyme [2])	SN-38 PF50 (A549 cell line)	Temozolomide PF50 (A549 cell line)	GI50 (A549 cell line) [nM]	SN-38 PF50 (SK-OV-3 Cell line)	Temozolomide PF50 (SK-OV-3 Cell line)	GI50 (SK-OV-3 Cell line) [nM]	SN-38 PF50 (HT-29 Cell line)	Temozolomide PF50 (HT-29 Cell line)	GI50 (HT-29 Cell line) [nM]	SN-38 PF50 (MCF-7 Cell line)	Temozolomide PF50 (MCF-7 Cell line)	GI50 (MCF-7 Cell line) [nM]	pIC50 (PARP-1 enzyme [1])
COc1cccc2[nH]c(=O)c3c(c12)NCCC3.Cl [Example 2, 10-Methoxy-1,2,3,4-tetrahydrobenzo[h][1,6]naphthyridine-5(6H)-one hydrochloride]	6.22	6.04	2.2	2.4	59000	1.2	>3.2	50000	1.4	>1.5	70000	1.4	1.7	51000	
O=c1[nH]c2ccc(OCCCCN3CCCCC3)cc2c2c1CCCN2 [Example 29, 9-[4-(Piperidine-1yl)butoxy]-1,2,3,4-tetrahydrobenzo[h][1,6]naphthyridine-5(6H)-one dihydrochloride]			1.5	2.0	> 100000	1.5	>1.7	> 100000	1.5	>1.2	91000	2.2	2.1	> 100000	5.55
CCN(CC)Cc1ccc2c3c(c(=O)[nH]c2c1)CCCN3 [Example 42, 8-[(Diethylamino)methyl]-1,2,3,4-tetrahydrobenzo[h][1,6]naphthyridine-5(6H)-one dihydrochloride]		6.07	1.6	2.3	> 100000	1.6	>2.1	> 100000	2.1	>1.4	81000	1.6	1.6	75000	6.66
CNCc1ccc2c3c(c(=O)[nH]c2c1)CCCN3 [Example 52, 8-[(Methylamino)methyl]-1,2,3,4-tetrahydrobenzo[h][1,6]naphthyridine-5(6H)-one dihydrochloride]			2.2	1.5	> 100000	1.4	>2.2	> 100000	1.4	>1.3	90000	1.1	1.5	> 100000	7.15
COc1cc(CN(C)C)cc2[nH]c(=O)c3c(c12)NCCC3 [Example 72, 8-[(Dimethylamino)methyl]-10-methoxy-1,2,3,4-tetrahydrobenzo[h][1,6]naphthyridine-5(6H)-one dihydrochloride]		7.05	3.8	3.4	> 100000	1.8	>10.2	> 100000	2.2	>5.2	> 100000	2.6	1.7	54000	7.10
CCOc1cc(CN2CCOCC2)cc2[nH]c(=O)c3c(c12)NCCC3 [Example 101, 10-Ethoxy-8-(morpholinomethyl)-1,2,3,4-tetrahydrobenzo[h][1,6]naphthyridine-5(6H)-one dihydrochloride]	6.25	5.71	2.6	3.2	55000	2.8	>3.9	19000	4.0	>1.9	20000	3.0	5.9	11000	
COc1cc(CN2CCSCC2)cc2[nH]c(=O)c3c(c12)NCCC3 [Example 106, 10-Methoxy-8-(thiomorpholinomethyl)-1,2,3,4-tetrahydrobenzo[h][1,6]naphthyridine-5(6H)-one dihydrochloride]		6.54													7.05
COc1cc(CN2CCC(N3CCOCC3)CC2)cc2[nH]c(=O)c3c(c12)NCCC3 [Example 108, 10-Methoxy-8-[(4-morpholinopiperidine-1-yl)methyl]-1,2,3,4-tetrahydrobenzo[h][1,6]naphthyridine-5(6H)-one trihydrochloride]		6.96													6.85
COc1cc(CN)cc2[nH]c(=O)c3c(c12)NCCC3 [Example 109, 8-(Aminomethyl)-10-methoxy-1,2,3,4-tetrahydrobenzo[h][1,6]naphthyridine-5(6H)-one dihydrochloride]		6.03													7.15
CCCOc1cc(CN(C)C)cc2[nH]c(=O)c3c(c12)NCCC3 [Example 110, 8-[(Dimethylamino)methyl)]-10-propoxy-1,2,3,4-tetrahydrobenzo[h][1,6]naphthyridine-5(6H)-one dihydrochloride]	7.10	7.05													
CCCOc1cc(CN2CCOCC2)cc2[nH]c(=O)c3c(c12)NCCC3 [Example 111, 8-(Morpholinomethyl)-10-propoxy-1,2,3,4-tetrahydrobenzo[h][1,6]naphthyridine-5(6H)-one dihydrochloride]		5.88													6.02
CCOc1cc(CN)cc2[nH]c(=O)c3c(c12)NCCC3 [Example 113, 8-(Aminomethyl)-10-etoxy-1,2,3,4-tetrahydrobenzo[h][1,6]naphthyridine-5 (6H)-one dihydrochloride]	7.00	5.84													
CCCOc1cc(CN)cc2[nH]c(=O)c3c(c12)NCCC3 [Example 114, 8-(Aminomethyl)-10-propoxy-1,2,3,4-tetrahydrobenzo[h][1,6]naphthyridine-5(6H)-one dihydrochloride]		5.72													6.72
COCCOc1cc(CN2CCOCC2)cc2[nH]c(=O)c3c(c12)NCCC3 [Example 117, 10-(2-Methoxyetoxy)-8-(morpholinomethyl)-1,2,3,4-tetrahydrobenzo[h][1,6]naphthyridine-5(6H)-one dihydrochloride]	6.21	5.20													
